Source: patent US11760773B2, “Small molecule drug conjugates of gemcitabine monophosphate” (MaveriX Oncology, Inc., priority 2018, dated 2023)
Where a name gives a salt, the structure may show the parent alone. Read-outs that look alike come from different tables or passages of the source.

Experiments:
[1] = system: UT-SCC-9; test: Tumor cell proliferation (alamarBlue) cytotoxicity assay, UT-SCC-9; format: cell-based, human
Protocol: (§1) A tumor cell proliferation assay was used to determine cytotoxicity IC50 values for the phosphate prodrug Compounds 1-9, the parent non-phosphorylated SMDC parent compounds, and the effector (gemcitabine) across eight primary early-passage human head and neck squamous cell carcinoma cell lines including UT-SCC-5, UT-SCC-8, UT-SCC-9, UT-SCC-10, UT-SCC-14, UT-SCC-16A, UT-SCC-16B, and UT-SCC-24A.
(§2) UTSCC cells were seeded at 4000 cells/100 I/well on 96-well black clear-bottom tissue culture plate. Cells were incubated at 37° C. and 5% CO2 overnight to allow them to recover and re-attach. The next day cells were treated with the test compound (0-100 μM) for 72 hours. After treatment, cell proliferation was measured by Fluorescent quantitation of alamarBlue reagent. The alamarBlue assay incorporates a fluorometric/colorimetric growth indicator based on detection of metabolic activity. Specifically, resazurin, the active ingredient of alamarBlue reagent, is blue in color and virtually non-fluorescent. Upon entering cells, resazurin is reduced to resorufin, a compound that is red in color and highly fluorescent.
(§3) Continued cell growth maintains a reduced environment, therefore increasing the overall fluorescence and color of the media surrounding cells. The fluorescence intensity of alamarBlue reagent was directly proportional to cell number. To perform the alamarBlue assay, 10 I of alamarBlue reagent was added to each well and the plate was incubated at 37° C. for an additional 2 hour. Fluorescence intensity was measured at an excitation of 530 nm and an emission of 590 nm using a BioTek Synergy™ 2 microplate reader.
(§4) Cell proliferation assays in triplicate were performed at each concentration. The fluorescent intensity data were analyzed using the computer software, Graphpad Prism. In the absence of the compound, the fluorescent intensity (Ft) in each data set was defined as 100%. In the absence of cells, the fluorescent intensity (Fb) in each data set was defined as 0%. The percent cell in the presence of each compound was calculated according to the following equation: % cell=(F−Fb)/(Ft−Fb), where F=the fluorescent intensity in the presence of the compound, Fb=the fluorescent intensity in the absence of cells, and Ft=the fluorescent intensity in the absence of the compound. The values of % cell versus a series of compound concentrations were then plotted using non-linear regression analysis of Sigmoidal dose-response curve generated with the equation Y=B+(T−B)/1+10^((Log EC50-X)×Hill Slope) where Y=percent cell, B=minimum percent cell, T=maximum percent cell, X=logarithm of compound and Hill Slope=slope factor or Hill coefficient. The IC50 value was determined by the concentration causing a half-maximal percent activity.

[2] = system: UT-SCC-10; test: Tumor cell proliferation (alamarBlue) cytotoxicity assay, UT-SCC-10; format: cell-based, human
Protocol: as §1, §2, §3, §4

[3] = Compound 1 and gemcitabine plasma PK in the male cynomolgus monkey (study h); format: in vivo
Protocol: Objectives: to compare the plasma pharmacokinetics and stability of the Compound 1 with Int 1-4 and in plasma following a single intravenous infusion administration of Compound 1 at 5 mg/kg and 10 mg/kg with equimolar gemcitabine at 2.28 mg/kg in male cynomolgous monkeys.
PK measurements: compare PK parameters C0, CL, Vdss, Cmax, tmax, t1/2, AUC(0-t), AUC(0-inf), MRT(0-t), MRT(0-inf) for Compound 1 and Int 1-4 with gemcitabine.

[4] = Comparative plasma PK of Compound 1 versus Int 1-4 in male CD-1 mice (study b); format: in vivo; conditions: male, CD-1, mouse, iv; for AUC(0-inf): read-out: AUC0-inf; for MRT inf: read-out: MRT0-inf; for MRT last: read-out: MRT0-last; for Vd: read-out: Vdss
Protocol: Objectives: to compare the plasma pharmacokinetics and stability of Compound 1 with its non-phosphorylated SMDC analog (Int 1-4) and in plasma following a single intravenous infusion administration of Compound 1 at 11.6 mg/kg and 23.2 mg/kg with Int 1-4 (formulation F1 & F2) at 10.0 mg/kg in male CD-1 mice
PK measurements: compare PK parameters C0, CL, Vdss, Cmax, tmax, t1/2, AUC(0-t), AUC(0-inf), MRT(0-t), MRT(0-inf) for Compound 1 and Int 1-4

[5] = system: UT-SCC-24A; test: Tumor cell proliferation (alamarBlue) cytotoxicity assay, UT-SCC-24A; format: cell-based, human
Protocol: as §1, §2, §3, §4

[6] = system: UT-SCC-14; test: Tumor cell proliferation (alamarBlue) cytotoxicity assay, UT-SCC-14; format: cell-based, human
Protocol: as §1, §2, §3, §4

[7] = Solubility / formulation; format: physicochemical; conditions: water; read-out: soluble in water
[8] = system: UT-SCC-16B; test: Tumor cell proliferation (alamarBlue) cytotoxicity assay, UT-SCC-16B; format: cell-based, human
Protocol: as §1, §2, §3, §4

[9] = system: UT-SCC-5; test: Tumor cell proliferation (alamarBlue) cytotoxicity assay, UT-SCC-5; format: cell-based, human
Protocol: as §1, §2, §3, §4

[10] = Mouse plasma stability (Compound 1); format: in vitro ADME
[11] = system: UT-SCC-16A; test: Tumor cell proliferation (alamarBlue) cytotoxicity assay, UT-SCC-16A; format: cell-based, human
Protocol: as §1, §2, §3, §4

[12] = system: primary head and neck squamous cell carcinoma cell lines; test: Cytotoxicity, average over the eight UT-SCC cell lines; format: cell-based, human
Protocol: as §1
UTSCC cells were seeded at 4000 cells/100 I/well on 96-well black clear-bottom tissue culture plate. Cells were incubated at 37° C. and 5% CO2 overnight to allow them to recover and re-attach. The next day cells were treated with the test compound (0-100 μM) for 72 hours. After treatment, cell proliferation was measured by Fluorescent quantitation of alamarBlue reagent. […]
Continued cell growth maintains a reduced environment, therefore increasing the overall fluorescence and color of the media surrounding cells. The fluorescence intensity of alamarBlue reagent was directly proportional to cell number. […] Fluorescence intensity was measured at an excitation of 530 nm and an emission of 590 nm using a BioTek Synergy™ 2 microplate reader.
Cell proliferation assays in triplicate were performed at each concentration. The fluorescent intensity data were analyzed using the computer software, Graphpad Prism. […] The IC50 value was determined by the concentration causing a half-maximal percent activity.

[13] = system: UT-SCC-8; test: Tumor cell proliferation (alamarBlue) cytotoxicity assay, UT-SCC-8; format: cell-based, human
Protocol: as §1, §2, §3, §4

[14] = plasma, after iv Compound 1 5 mg/kg
[15] = 11.6 mg/kg, after iv Compound 1 11.6 mg/kg
[16] = 23.2 mg/kg, after iv Compound 1 23.2 mg/kg
[17] = Homo sapiens, 72 hours treatment

COc1cc(OC)c2oc(COC(=O)Nc3ccn([C@@H]4O[C@H](COP(=O)(O)O)[C@@H](O)C4(F)F)c(=O)n3)cc2c1 [Compound 1, ((2R,3R,5R)-5-(4-((((5,7-dimethoxybenzofuran-2-yl)methoxy)carbonyl)-amino)-2-oxopyrimidin-1(2H)-yl)-4,4-difluoro-3-hydroxytetrahydrofuran-2-yl)methyl hydrogen phosphate triethyl ammonium salt]
IC50 ([1]; Homo sapiens, UT-SCC-9, 72 hours treatment): 53 nM | Cytotoxicity IC50 ratio Compound 1/Int 1-4 ([1]; UT-SCC-9): 1.4 | Cytotoxicity IC50 ratio Compound 1/gemcitabine ([1]; UT-SCC-9): 1.5 | IC50 ([2]; Homo sapiens, UT-SCC-10, 72 hours treatment): 14 nM | Cytotoxicity IC50 ratio Compound 1/Int 1-4 ([2]; UT-SCC-10): 1.6 | Cytotoxicity IC50 ratio Compound 1/gemcitabine ([2]; UT-SCC-10): 1.6 | VDss fold lower than Int 1-4 [3]: 10 fold | AUC(0-t) [3, 14]: 1830 ng·h/mL | C0 [3, 14]: 139000 ng/mL | clearance [3, 14]: 46.5 mL/min/kg | half-life [3, 14]: 36 s | MRT inf ([3]; plasma, after iv Compound 1 5 mg/kg, read-out: MRT0-inf): 36 s | MRT last ([3]; plasma, after iv Compound 1 5 mg/kg, read-out: MRT0-last): 36 s | Vd ([3]; plasma, after iv Compound 1 5 mg/kg, read-out: Vdss): 0.0357 L/kg | AUC(0-t) [4, 15]: 202 ng·h/mL | C0 [4, 15]: 21900 ng/mL | clearance [4, 15]: 1970 mL/min/kg | half-life [4, 15]: 52.9 s | AUC(0-inf) [4, 15]: 202 ng·h/mL | MRT inf [4, 15]: 39.2 s | MRT last [4, 15]: 38.9 s | Vd [4, 15]: 1.41 L/kg | AUC(0-t) [4, 16]: 103 ng·h/mL | C0 [4, 16]: 2330 ng/mL | clearance [4, 16]: 5190 mL/min/kg | half-life [4, 16]: 131 s | AUC(0-inf) [4, 16]: 105 ng·h/mL | MRT inf [4, 16]: 164 s | MRT last [4, 16]: 153 s | Vd [4, 16]: 12 L/kg | Cytotoxicity IC50 ratio Compound 1/Int 1-4 [5]: 0.9 | Cytotoxicity IC50 ratio Compound 1/gemcitabine [5]: 1.3 | IC50 [5, 17]: 18 nM | IC50 ([6]; Homo sapiens, UT-SCC-14, 72 hours treatment): 13 nM | Cytotoxicity IC50 ratio Compound 1/Int 1-4 ([6]; UT-SCC-14): 1.0 | Cytotoxicity IC50 ratio Compound 1/gemcitabine ([6]; UT-SCC-14): 2.2 | solubility [7]: > 300 mg/mL | Cytotoxicity IC50 ratio Compound 1/Int 1-4 [8]: 0.8 | Cytotoxicity IC50 ratio Compound 1/gemcitabine [8]: 1.3 | IC50 [8, 17]: 130 nM | IC50 ([9]; Homo sapiens, UT-SCC-5, 72 hours treatment): 24 nM | Cytotoxicity IC50 ratio Compound 1/Int 1-4 ([9]; UT-SCC-5): 1.5 | Cytotoxicity IC50 ratio Compound 1/gemcitabine ([9]; UT-SCC-5): 2.7 | stability in mouse plasma [10]: stable | Slope Mean ± SE ([10]; 3 μM, 37° C.): 0.00413 ± 0.000752 | Cytotoxicity IC50 ratio Compound 1/Int 1-4 [11]: 0.5 | Cytotoxicity IC50 ratio Compound 1/gemcitabine [11]: 1.2 | IC50 [11, 17]: 73 nM | average ratio of cytotoxicity IC50 values Compound 1/Int 1-4 [12]: ~1 | average ratio of cytotoxicity IC50 values Compound 1/gemcitabine [12]: ~1.6 | IC50 ([13]; Homo sapiens, UT-SCC-8, 72 hours treatment): 23 nM | Cytotoxicity IC50 ratio Compound 1/Int 1-4 ([13]; UT-SCC-8): 0.7 | Cytotoxicity IC50 ratio Compound 1/gemcitabine ([13]; UT-SCC-8): 1.0
